# Numbered stars: 1 amine (or outer) side, 2 acyl side, 3 side chain; on linkers, the order of the positions; unused ones are H or OH. Bridge positions count the residues as written; N and C are the ends. Square brackets hold non-standard residues; d marks the D form. Peptide text beside a SMILES is read from it. I, II: the chains in the order shown. ξ: configuration not given here. Phe(4-tBu) = CC(C)(C)c1ccc(C[C@H](N)C(=O)O)cc1; Diglycolyl = O=C(COCC(=O)[*:2])[*:1]; NMeR = CN[C@@H](CCCNC(=N)N)C(=O)O; β3hE = N[C@@H](CCC(=O)O)CC(=O)O; Thr(3ξ) = CC(O)[C@H](N)C(=O)O; Pen = CC(C)(S)[C@H](N)C(=O)O
# B1: Compound B (peptide)
# peptide: Ac-[Pen][NMeR]SDTL[Pen][Phe(4-tBu)][β3hE][dK]-NH2
# modifications: disulfide 1-7; also: homodimer linked through D-Lys residues by diglycolic acid (DIG)
# What was measured:
# α4β7 [1] = target: T1, α4β7 (Mus musculus, UniProt P26011+Q00651); assay: α4β7 receptor occupancy in whole blood and Peyer's patches after oral dosing; assay type: in vivo, C57BL/6 mice
# T1 construct: mice were euthanized and whole blood/plasma and Peyer's patches were collected; from tissue; host or cells: whole blood and Peyer's patches of C57BL/6 mice
# Description: One hour following dosing, mice were euthanized and whole blood/plasma and Peyer's patches were collected. Peyer's patches were dispersed in 1 mL RPMI medium with 2% FBS without washing step. Whole blood and single cell suspension of Peyer's patches (100 uL out of 1 mL total) were submitted for flow cytometry to determine α4β7 receptor occupancy. % RO=(1−(% positive test sample/% positive median vehicle control))*100. Plasma and Peyer's patches dispersed in single cell suspension (500 uL of 1 mL total) were also analyzed for drug exposure.
# α4β7 [2] = target: T2, α4β7 (Homo sapiens, UniProt P13612+P26010); assay: α4β7 internalization / surface expression by flow cytometry; assay type: cell-based; details: human PBMCs, 100 nM, 24 h
# T2 construct: endogenous in cells
# Excerpt: Blood samples from human donors were obtained from the Stanford Blood Center (Stanford, Calif.) under an RB-approved research protocol. Blood was drawn into BD Vacutainer sodium heparin blood collection tubes (BD Biosciences, Cat #362753). Peripheral blood mononuclear cells (PBMCs) were isolated from blood using a SepMate-50 tube and LymphoPrep per the manufacturer's protocol. CD4^+ T memory cells were enriched after PBMC isolation, using an EasySep kit (StemCell Technologies) per the manufacturer's protocol.
# After incubation, an aliquot of cells from each reaction was stained for α4β7 expression.
# After incubation, cells were washed extensively to remove excess peptide. For each reaction, an aliquot of cells was stained for α4β7 expression, while a separate aliquot was tested for adhesion to MAdCAM1.
# An aliquot of cells were collected before and 24 h post peptide addition and stained for α4β7 expression. Afterwards, cells were extensively washed to remove excess peptide and incubated in fresh complete culture medium (without MnCl2) for an additional seven days. On day 1, 2, 4, 5, and 7 days after peptide washout, aliquots were stained for α4β7 expression.
# Following peptide incubation, an aliquot of each reaction was stained for surface expression of α4β7 in preparation for flow cytometry. Cells were stained at 4° C. for 30 minutes, washed twice in DPBS containing 0.5% BSA (PBS/BSA), incubated with streptavidin BV421 (diluted 1:1000) at 4° C. for 30 minutes, washed twice in PBS/BSA, and then resuspended in PBS/BSA for analysis. Where relevant, a “fluorescence minus one” (FMO) sample was used as the staining control.
# Samples were analyzed by flow cytometry on a BD (Franklin Lakes, N.J.) FACSVerse flow cytometer equipped with the following lasers: 405 nm (violet), 488 nm (blue), 561 nm (yellow-green), and 640 nm (red). CD4^+ T memory cells were identified as CD4^+, […], CD197^+ lymphocytes. α4β7 expression within CD4^+ T memory cells was identified based on staining with the Vedolizumab BV421 complex; staining was analyzed using BD FACSuite software, version 1.0.5. Where applicable, values were normalized to no-peptide controls and expressed as percentages to permit assessment of changes in the indicated parameter. Data were plotted and analyzed using Prism software (version 7; GraphPad, La Jolla, Calif.).
# α4β7 integrin = target: T3, α4β7 integrin (Homo sapiens, UniProt P13612+P26010); assay: Inhibition of MAdCAM1-mediated CD4+ T cell proliferation (plate bound anti-CD3 + MAdCAM1); assay type: cell-based; details: Compound A 1 uM, inactive analog 1 uM, vedolizumab 500 ng/mL; three days
# T3 construct: endogenous in cells; host or cells: primary human CD4+ T cells enriched from PBMCs of healthy donors
# Description: PBMCs were purified from healthy human donors and enrichment of CD4+ T cells was performed. […] Phenotype, distribution of T-helper (Th) subsets and % RO analyses were conducted by flow cytometry of freshly stained live samples.
# [3] = target: α4β7 integrin (mouse, on cells of whole blood and Peyer's patches) (mouse) (UniProt Q00651); assay: flow cytometry α4β7 receptor occupancy in Peyer's patches, mice dosed orally 3 or 30 mg/kg
# Sequence of α4β7 integrin (mouse, on cells of whole blood and Peyer's patches) (mouse) (Q00651 41-1039, chain 1 of 2): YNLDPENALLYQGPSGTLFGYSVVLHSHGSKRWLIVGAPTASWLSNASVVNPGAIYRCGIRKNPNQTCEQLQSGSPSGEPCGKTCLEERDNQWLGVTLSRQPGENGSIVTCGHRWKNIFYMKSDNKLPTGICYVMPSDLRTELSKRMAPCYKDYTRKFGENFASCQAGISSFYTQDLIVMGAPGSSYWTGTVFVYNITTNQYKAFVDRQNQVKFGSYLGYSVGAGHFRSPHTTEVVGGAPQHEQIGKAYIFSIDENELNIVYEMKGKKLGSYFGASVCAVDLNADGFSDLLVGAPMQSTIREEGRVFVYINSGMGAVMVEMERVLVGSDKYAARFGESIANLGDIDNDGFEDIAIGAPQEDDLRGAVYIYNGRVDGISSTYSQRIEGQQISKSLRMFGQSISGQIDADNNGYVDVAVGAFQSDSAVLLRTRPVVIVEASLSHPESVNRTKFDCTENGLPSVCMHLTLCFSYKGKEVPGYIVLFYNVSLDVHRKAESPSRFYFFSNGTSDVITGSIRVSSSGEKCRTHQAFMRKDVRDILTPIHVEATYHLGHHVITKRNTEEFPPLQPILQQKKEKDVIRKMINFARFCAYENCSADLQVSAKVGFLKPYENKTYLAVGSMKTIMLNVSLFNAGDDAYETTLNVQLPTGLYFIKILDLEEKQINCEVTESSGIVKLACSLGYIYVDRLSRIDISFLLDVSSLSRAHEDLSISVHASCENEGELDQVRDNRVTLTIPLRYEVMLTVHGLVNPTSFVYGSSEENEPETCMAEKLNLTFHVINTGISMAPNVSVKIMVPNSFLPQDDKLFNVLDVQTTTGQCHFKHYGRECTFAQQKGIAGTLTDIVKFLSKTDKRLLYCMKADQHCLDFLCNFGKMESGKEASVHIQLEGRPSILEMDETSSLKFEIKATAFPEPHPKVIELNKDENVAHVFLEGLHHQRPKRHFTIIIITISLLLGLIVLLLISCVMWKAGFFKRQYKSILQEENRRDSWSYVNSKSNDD
# Sequence of α4β7 integrin (mouse, on cells of whole blood and Peyer's patches) (mouse) (P26011 20-806, chain 2 of 2, further chain): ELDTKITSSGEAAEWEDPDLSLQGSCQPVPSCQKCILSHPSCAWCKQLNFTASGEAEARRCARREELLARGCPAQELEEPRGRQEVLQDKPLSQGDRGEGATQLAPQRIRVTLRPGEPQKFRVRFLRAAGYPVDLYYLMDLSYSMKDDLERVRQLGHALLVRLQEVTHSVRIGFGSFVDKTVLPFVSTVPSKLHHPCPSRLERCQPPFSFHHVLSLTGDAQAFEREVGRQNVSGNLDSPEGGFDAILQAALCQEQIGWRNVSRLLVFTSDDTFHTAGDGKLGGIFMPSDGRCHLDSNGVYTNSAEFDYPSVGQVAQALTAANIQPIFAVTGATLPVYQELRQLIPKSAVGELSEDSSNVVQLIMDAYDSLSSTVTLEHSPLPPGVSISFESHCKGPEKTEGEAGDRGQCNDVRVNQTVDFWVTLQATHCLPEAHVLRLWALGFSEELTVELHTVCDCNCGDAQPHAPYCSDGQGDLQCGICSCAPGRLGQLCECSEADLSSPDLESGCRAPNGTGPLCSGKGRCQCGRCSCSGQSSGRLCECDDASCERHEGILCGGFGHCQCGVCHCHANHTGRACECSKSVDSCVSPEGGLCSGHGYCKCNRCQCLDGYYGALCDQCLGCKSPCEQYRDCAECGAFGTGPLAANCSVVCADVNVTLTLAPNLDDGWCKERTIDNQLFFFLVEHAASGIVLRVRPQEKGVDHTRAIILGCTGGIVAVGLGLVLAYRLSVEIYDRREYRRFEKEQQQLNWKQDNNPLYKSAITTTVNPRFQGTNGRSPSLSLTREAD
# T1 sequence (Q00651 41-1039): as the sequence (Q00651 41-1039, chain 1 of 2) above
# T1 sequence (P26011 20-806): as the sequence (P26011 20-806, chain 2 of 2, further chain) above
molecule,measurement,setting,value
"CC(=O)N[C@@H]1C(=O)N(C)[C@@H](CCCNC(=N)N)C(=O)N[C@@H](CO)C(=O)N[C@@H](CC(=O)O)C(=O)N[C@@H](C(C)O)C(=O)N[C@@H](CC(C)C)C(=O)N[C@H](C(=O)N[C@@H](Cc2ccc(C(C)(C)C)cc2)C(=O)N[C@@H](CCC(=O)O)CC(=O)N[C@H](CCCCNC(=O)COCC(=O)NCCCC[C@@H](NC(=O)C[C@H](CCC(=O)O)NC(=O)[C@H](Cc2ccc(C(C)(C)C)cc2)NC(=O)[C@H]2NC(=O)[C@H](CC(C)C)NC(=O)[C@H](C(C)O)NC(=O)[C@H](CC(=O)O)NC(=O)[C@H](CO)NC(=O)[C@H](CCCNC(=N)N)N(C)C(=O)[C@@H](NC(C)=O)C(C)(C)SSC2(C)C)C(N)=O)C(N)=O)C(C)(C)SSC1(C)C (stereo partly drawn) [Compound B, (Ac-Pen-(N-Me-Arg)-Ser-Asp-Thr-Leu-Pen-(Phe(4-tBu))-(β-homo-Glu)-(D-Lys)-NH2)2 (SEQ ID NO. 6) with linker=DIG (diglycolic acid)] (I: Ac-[Pen][NMeR]SD[Thr(3ξ)]L[Pen][Phe(4-tBu)][β3hE][dK]-NH2 / II: Ac-[Pen][NMeR]SD[Thr(3ξ)]L[Pen][Phe(4-tBu)][β3hE][dK]-NH2; disulfide I:1-I:7, II:1-II:7; linker I:10-II:10 via Diglycolyl)",receptor occupancy in Peyer's patches,"α4β7 [1]; 3 and 30 mg/kg PO, 1 h post dose, some animals",100%
same,"receptor occupancy in whole blood and Peyer's patches, 30 mg/kg vs 3 mg/kg dose group",α4β7 [1]; PO,comparable
same,receptor occupancy in Peyer's patches compared to whole blood,α4β7 [1]; both dose groups (3 and 30 mg/kg PO),significantly higher
same,internalization of α4β7,α4β7 [2],caused internalization of α4β7
vedolizumab: intravenously administered humanized IgG monoclonal antibody directed against α4β7 [reference compound],inhibition of MAdCAM1-mediated proliferation of CD4+ T-cells,α4β7 integrin,level of inhibition was similar to inhibition by vedolizumab
B1,receptor occupancy (%),[3],100%
